Measured values taken from patent publication US5457106A, “Pyridine derivatives, their production and use” (Takeda Chemical Industries, Ltd., priority 1991, dated 1995).
Structures can show the parent of a compound that is named as a salt. Where two headings read alike, the source gives them in different places. Blank lines part the entries; values can stand above or below the molecule they belong to.

Tests used:
cyclooxygenase = biological target: T1, cyclooxygenase (Rattus norvegicus, UniProt Q63921); assay: Cyclooxygenase inhibitory activity (HHT formation from arachidonic acid in rat platelet-rich plasma); format: cell-based, rat (Jcl:wistar)
T1 construct: from tissue; host or cells: platelets in platelet-rich plasma from rat abdominal aorta blood (Jcl:wistar, male)
T1 sequence (Q63921 27-602): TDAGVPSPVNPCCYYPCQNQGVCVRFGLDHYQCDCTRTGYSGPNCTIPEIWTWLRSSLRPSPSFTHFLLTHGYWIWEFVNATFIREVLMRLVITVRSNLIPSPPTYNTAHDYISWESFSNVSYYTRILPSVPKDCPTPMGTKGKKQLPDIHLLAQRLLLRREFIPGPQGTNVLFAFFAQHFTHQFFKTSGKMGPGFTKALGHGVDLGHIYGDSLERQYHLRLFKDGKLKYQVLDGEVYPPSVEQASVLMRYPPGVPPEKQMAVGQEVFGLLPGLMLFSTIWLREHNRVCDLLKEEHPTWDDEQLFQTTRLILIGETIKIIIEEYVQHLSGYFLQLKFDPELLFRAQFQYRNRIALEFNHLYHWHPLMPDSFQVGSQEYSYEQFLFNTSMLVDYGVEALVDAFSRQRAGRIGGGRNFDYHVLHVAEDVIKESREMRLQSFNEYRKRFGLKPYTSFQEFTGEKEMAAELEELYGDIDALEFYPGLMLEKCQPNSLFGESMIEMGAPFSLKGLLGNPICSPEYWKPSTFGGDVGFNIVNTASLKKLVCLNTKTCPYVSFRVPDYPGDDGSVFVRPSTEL

[1] = system: ART (antigen-responding T-cell); assay: In vitro ART (antigen-responding T-cell) proliferation test; format: cell-based, Lewis rat; conditions: Rattus norvegicus, T-cell, read-out: % Inhibition of ART growth
[2] = system: Mouse phenylquinone writhing; assay: Mouse phenylquinone writhing inhibitory activity; format: in vivo, mouse (Slc: ICR); conditions: Mus musculus, po, 20 min, 50 mg/kg, orally; read-out: Inhibitory percentage (phenylquinone writhing)
Outline: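 Male ICR mice (4 weeks, 17–24 g) dosed orally with compound suspended in 5% gum arabic. After 30 min, 0.02% phenylquinone (0.1 ml/10 g) given i.p.; writhing and stretching responses counted over 20 min.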

[3] = system: Rat reversed passive Arthus reaction (skin); assay: Rat reversed passive Arthus reaction (skin) inhibitory activity; format: in vivo, rat (Jcl: SD); conditions: po, orally, read-out: Inhibitory percentage (reversed passive Arthus reaction)
Procedure: Rat Reversed Passive Arthus Reaction (skin) Inhibitory Activity This reaction was-induced by using domestic rabbit anti-egg albumin (EA) antiserum according to the method of Chang and Otterness [Chang, Y. -H. and Otterness, I. G.: Eur. J. Pharmacol. 69, 155 (1981)]. Using six Jcl: SD male rats (7 weeks old, weight about 250 g) per one group, the hair was removed from the back under ether anesthesia, 1 ml of 0.5% EA physiological saline was injected […] into the tail vein, and further each 0.1 ml of diluted antiserum (6 mg protein antibody/ml) was injected in the back on both dexter and sinister sides. […] Acceleration of permeability through the vessel by the reaction was measured by injecting 1 ml of 1% Evans blue physiological saline intravenously at three hours after the induction of the reaction. Then, after 30 minutes, the rat was sacrificed by exsanguination. The skin was peeled off and the area of pigment spot (length×breadth, mm^2) was measured.

[4] = system: Rat carrageenin pedal edema; assay: Rat carrageenin pedal edema inhibitory activity; format: in vivo, rat (Jcl: SD); conditions: Rattus norvegicus, po, 3 h, 50 mg/kg, orally, 3 hours after carrageenin; read-out: Inhibitory percentage (carrageenin pedal edema)
Outline: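 Male Jcl:SD rats (6 weeks, 160-220 g) received test compound orally as a 5% gum arabic suspension, topped up with water to 5 ml/rat. One hour later 0.05 ml of 1% carrageenin was injected subcutaneously into the right hind foot pad. Edema volume was the foot volume increase 3 hours post-injection.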

[5] = system: Mouse acetic acid writhing; assay: Mouse acetic acid writhing inhibitory activity; format: in vivo, mouse (Slc: ICR); conditions: orally; for inhibition in vivo at 50 mg/kg: Mus musculus, po, 20 min, read-out: Inhibitory percentage (acetic acid writhing); for Inhibitory percentage (acetic acid writhing): 50 mg/kg, hydrochloride
Procedure: Mouse Acetic Acid Writhing Inhibitory Activity
Ten male Slc: ICR mice, 4 weeks old, per 1 group were used. A test compound was administered orally, and after 30 minutes, 0.1 ml/10 g body weight of physiological saline containing 0.6% acetic acid was injected intraperitoneally. For 20 minutes, writhing (in agony condition) response by administration of acetic acid was counted regarding individual animals. The inhibitory percentage relative to the mean response counts of a control group was calculated regarding respective animals in a test compound administration group. The test compound was suspended in 5% gum arabic solution, and the administration volume was 0.2 ml/10 g.

[6] = system: brewer's yeast induced pyrexia; assay: Antipyretic activity (brewer's yeast induced pyrexia); format: in vivo, rat (DS line); conditions: 50 mg/kg, orally
Procedure: Antipyretic Activity Six male DS line rats, 7 weeks old, weighing 200 to 240 g (Nihon Clea) per one group were used. According to the method of Winder et al. (J. Pharmac. Exp. Ther. 138: 405 (1963)), a suspension of 15% brewer's yeast (Sigma) in physiological saline (1 ml/100 g, b.w.) was injected subcutaneously at 16 hours before measurement of the body temperature to induce pyrexia. After injection of yeast, only water was provided, and each rat was bred separately in a five duplicate cage. At 16, 17 and 18 hours after yeast injection, the rectal temperature was measured by a thermistor thermometer (Takara Kogyo K.K.), and this was taken as the basal body temperature. […] Animals having the body temperature of not lower than 38.5° C. at 18 hours after yeast injection were selected, and a test compound was administered orally (1 ml/100 g, b.w.). As a control, only the solvent was provided. Upon administration, the body temperature of the control group and that of the test compound-administered group were adjusted to the same temperature. The rectal temperature was measured every hour till five hours after administration.

ELAM-1 = assay: Adhesion protein expression inhibitory activity, ELAM-1; format: cell-based
Procedure: (§1) Adhesion Protein Expression Inhibitory Activity The various concentrations of test compounds were added to the human umbilical cord-derived vascular endothelial cells [sold by Klabo] which were seeded in the gelatin coat plate and the mixture was incubated at 37° C. for 15 minutes. Then, the human tumor necrosis factor-α[TNF-α; sold by Genzyme] was added therein to the final concentration of 1 ng/ml and incubation was carried out at 37° C. for 3 hours for expression of ELAM-1 and for 6 hours for that of ICAM-I. After the reaction, the cells were fixed using glutaraldhyde and the expression amount of ELAM-1 and ICAM-1 was measured by the cell-ELISA method. That is, the expression was determined by […] the adhesion proteins on the cells in the system using anti-ELAM-1 antibody BBA-2 and anti-ICAM-1 antibody BBA4 as the first antibody as well as horseradish peroxidase-labeled rabbit anti-mouse IgG antibody as the second antibody.

5-Lipoxygenase = biological target: T2, 5-Lipoxygenase (Rattus norvegicus, UniProt P12527); assay: 5-Lipoxygenase inhibitory activity in rat basophilic leukemia cells; format: cell-based
T2 construct: rat basophilic leukemia cell suspension; endogenous in cells
T2 sequence (P12527 1-673): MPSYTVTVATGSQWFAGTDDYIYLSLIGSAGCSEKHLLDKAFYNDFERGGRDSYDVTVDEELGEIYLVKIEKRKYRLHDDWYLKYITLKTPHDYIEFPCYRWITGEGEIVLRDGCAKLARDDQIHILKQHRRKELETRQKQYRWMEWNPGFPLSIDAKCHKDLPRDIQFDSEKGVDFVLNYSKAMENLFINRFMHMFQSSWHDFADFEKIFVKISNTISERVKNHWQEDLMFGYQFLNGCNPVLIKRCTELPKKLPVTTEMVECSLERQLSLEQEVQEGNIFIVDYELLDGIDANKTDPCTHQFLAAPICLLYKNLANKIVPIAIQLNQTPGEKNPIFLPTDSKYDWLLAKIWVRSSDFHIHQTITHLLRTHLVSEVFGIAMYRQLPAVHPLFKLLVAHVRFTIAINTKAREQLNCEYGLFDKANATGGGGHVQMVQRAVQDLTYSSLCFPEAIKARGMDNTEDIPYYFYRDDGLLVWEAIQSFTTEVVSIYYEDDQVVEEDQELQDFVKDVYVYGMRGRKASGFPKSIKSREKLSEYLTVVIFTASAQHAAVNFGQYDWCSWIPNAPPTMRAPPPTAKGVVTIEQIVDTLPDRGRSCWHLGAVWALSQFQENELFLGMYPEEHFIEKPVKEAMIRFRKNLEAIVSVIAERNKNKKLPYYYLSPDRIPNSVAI
Procedure: 5-Lipoxygenase Inhibitory Activity […] Then, 0.1 ml of mast cell medium containing 50 μg of arachidonic acid and 1 μg of calcium ionophore (A-23187) were added and the mixture was allowed to stand at 37° C. for 15 minutes. Ethanol (1 ml) was added thereto and the mixture was shaken well, and filtered (Membrane filter, 0.45 μm). […] As a control, the measurement was carried out according to the same manner except that 0.01 ml of the solvent used for dissolving the test compound was used in place of the test compound. The inhibitory percentage (%) was calculated from the following equation to obtain IC50.

ICAM-1 = assay: Adhesion protein expression inhibitory activity, ICAM-1; format: cell-based; conditions: human umbilical vascular endothelial cells, TNF-α, 360 min
Procedure: as §1

[7] = 10 μM, human umbilical vascular endothelial cells, TNF-α; 180 min

- IC50 (cyclooxygenase): 3.4 µM
SMILES: O=C(NCCCSc1ccncc1)C(F)(F)F [Example 25, 4-[3-(trifluoroacetylamino)propylthio]pyridine hydrochloride]
- inhibition at 1 µM [1]: 44%
- inhibition at 10 µM [1]: -7%
- inhibition in vivo at 50 mg/kg [2]: 60%
- inhibition in vivo at 50 mg/kg [3]: 24%

- IC50 (cyclooxygenase): 11.3 µM
SMILES: O=C(NCCCSc1ccncc1)c1cccnc1 [Example 41, 4-[3-(nicotinoylamino)propylthio]pyridine]
- inhibition in vivo at 50 mg/kg [2]: 73%
- inhibition in vivo at 50 mg/kg [3]: 35%

- IC50 (cyclooxygenase): 8.6 µM
SMILES: O=C(NCCCSc1ccncc1)c1ccco1 [Example 53, 4-[3-(2-furoylamino)propylthio]pyridine]
- inhibition in vivo at 50 mg/kg [3]: 21%

SMILES: O=C(C=Cc1cccs1)NCCCSc1ccncc1 [Example 56, 4-[3-(2-thiopheneacrylamino)propylthio]pyridine]
- inhibition in vivo at 50 mg/kg [3]: 32%

- IC50 (cyclooxygenase): 5.5 µM
SMILES: O=C(NCCCSc1ccncc1)c1cnccn1 [Example 124, 4-[3-(2-pyrazinecarbonylamino)propylthio]pyridine]
- inhibition in vivo at 50 mg/kg [4]: 51%
- inhibition in vivo at 50 mg/kg [5]: 69%
- Antipyretic activity, peak time [6]: 2 h
- Antipyretic activity, .increment. °C. ([6]; at peak time): -1.52 °C

- IC50 (cyclooxygenase): 5.1 µM
SMILES: O=c1[nH]c2ccccc2c(=O)n1CCCCSc1ccncc1 [Example 146, 3-[4-(4-pyridylthio)butyl]quinazolin-2,4(1H,3H)-dione]
- inhibition at 1 µM [1]: 22%
- inhibition at 10 µM [1]: 20%
- Expression Inhibitory Potency, ELAM-1 (ELAM-1; 13 μM, human umbilical vascular endothelial cells, TNF-α; 180 min): 33%

- IC50 (5-Lipoxygenase; 5-HETE, read-out: 5-Lipoxygenase inhibitory activity, 5-HETE IC50): 1.3 µM
- IC50 (5-Lipoxygenase; LTB4, read-out: 5-Lipoxygenase inhibitory activity, LTB4 IC50): 0.79 µM
SMILES: O=C1C(=Cc2ccccc2)SC(=S)N1CCCCSc1ccncc1 [Example 153, 4-[4-(5-benzylidenerhodanine)butylthio]pyridine]
- inhibition at 1 µM [1]: -20%
- inhibition at 10 µM [1]: 75%
- inhibition in vivo at 50 mg/kg [5]: 49%

SMILES: CC1(C)OC(=O)N(CCCCSc2ccncc2)C1=O [Example 167, 4-(4-(5,5-dimethyloxazolidine-2,4-dione)butylthio]pyridine]
- inhibition in vivo at 50 mg/kg [5]: 62%

SMILES: O=c1c2ccccc2oc(=S)n1CCSc1ccncc1 [Example 170, 4-[2-[2H-1,3-benzoxadine-2-thion-4(3H)-on]ethylthio]pyridine]
- inhibition in vivo at 50 mg/kg [5]: 91%

SMILES: O=C1c2ccccc2S(=O)(=O)N1CSc1ccncc1 [Example 172, 4-saccharinmethylthiopyridine]
- inhibition in vivo at 50 mg/kg [4]: 19%
- Expression Inhibitory Potency, ELAM-1 (ELAM-1; 13 μM, human umbilical vascular endothelial cells, TNF-α, 180 min): 31%
- Expression Inhibitory Potency, ICAM-1 (ICAM-1; 13 μM): 34%

SMILES: O=C1CSC(=O)N1CSc1ccncc1 [Example 176, 4-(2,4-thiazolidinedionemethylthio)pyridine hydrochloride]
- Inhibitory percentage (acetic acid writhing) [5]: 87%

SMILES: CC1(C)OC(=O)N(CSc2ccncc2)C1=O [Example 179, 4-(5,5-dimethyloxazolidine-2,4-dionemethylthio)pyridine hydrochloride]
- Inhibitory percentage (acetic acid writhing) [5]: 66%

SMILES: O=C1c2ccccc2S(=O)(=O)N1CSc1ccncc1 [Example 180, 4-(saccharinmethylthio)pyridine hydrochloride]
- Expression Inhibitory Potency, ELAM-1 (ELAM-1; 13 μM, human umbilical vascular endothelial cells, TNF-α, 180 min, hydrochloride): 29%
- Expression Inhibitory Potency, ICAM-1 (ICAM-1; 13 μM, hydrochloride): 35%

SMILES: O=C1SC(=Cc2ccncc2)C(=O)N1CCCCSc1ccncc1 [Example 184, 4-[4-[5-(4-pyridyl)methylene-2,4-thiazolidinedione]butylthio]pyridine]
- Expression Inhibitory Potency, ELAM-1 (ELAM-1; [7]): 47%

SMILES: O=C1SC(=Cc2cccnc2)C(=O)N1CCCCSc1ccncc1 [Example 185, 4-[4-[5-(3-pyridyl)methylene-2,4-thiazolidinedione]butylthio]pyridine]
- Expression Inhibitory Potency, ELAM-1 (ELAM-1; [7]): 33%

SMILES: CCCCCCCCCC=C1SC(=O)N(CCCCSc2ccncc2)C1=O [Example 187, 4-[4-(5-nonylmethylene-2,4-thiazolidinedione)butylthio]pyridine hydrochloride]
- Expression Inhibitory Potency, ELAM-1 (ELAM-1; [7]): 53%
- Expression Inhibitory Potency, ICAM-1 (ICAM-1; 10 μM): 79%
